Results on one compound are retold here after ChEMBL document CHEMBL5712075, “The histone methyltransferase EZH2 as a novel prosurvival factor in clinically aggressive chronic lymphocytic leukemia” (Oncotarget, 2016).

The target in assay [1] is Histone-lysine N-methyltransferase EZH2 (Homo sapiens) (UniProt Q15910). Nature of the assay: Inhibition of EZH2 in human CD19+ B cells assessed as decrease in H3K27me3 levels measured as percentage abundance at 4 uM by Western blot analysis relative to control. More on the design: scale not given: the % may be the effect or the level left. The assay is classed as cell-based. Particulars: CD19 positive B cell. (In general: In western blotting, separated proteins are transferred to a membrane and probed.)

For assay [2] the target is unchanged. In words: Inhibition of EZH2 in human CD19+ B cells assessed as decrease in H3K27me3 levels measured as percentage abundance at 4 uM after 2 days by Western blot analysis relative to control. The assay is classed as cell-based. More on the design: scale not given: the % may be the effect or the level left. Particulars: CD19 positive B cell, time 2.0 day.
Assay [3] has the same target. In words: Inhibition of EZH2 in human CD19+ B cells assessed as decrease in H3K27me3 levels measured as percentage abundance at 4 uM after 4 days by Western blot analysis relative to control. Particulars: CD19 positive B cell, time 4.0 day. Also noted: scale not given: the % may be the effect or the level left. The assay is classed as cell-based.
For assay [4] the target is unchanged. Nature of the assay: Inhibition of EZH2 in human CD19+ B cells assessed as decrease in H3K27me3 levels measured as percentage abundance at 4 uM after 6 days by Western blot analysis relative to control. It is filed as cell-based. The conditions noted are these: CD19 positive B cell, time 6.0 day. More on the design: scale not given: the % may be the effect or the level left.

The target is the same in assay [5]. Nature of the assay: Inhibition of EZH2 in human CD19+ B cells assessed as decrease in H3K27me3 levels measured as percentage abundance at 4 uM after 8 days by Western blot analysis relative to control. The assay is classed as cell-based. More on the design: scale not given: the % may be the effect or the level left. The conditions noted are these: CD19 positive B cell, time 8.0 day.

Assay [6] shares this target. Nature of the assay: Inhibition of EZH2 in human CD19+ B cells assessed as decrease in H3K27me3 levels measured as percentage abundance at 4 uM after 10 days by Western blot analysis relative to control. Particulars: CD19 positive B cell, time 10.0 day. The assay is classed as cell-based. Also noted: scale not given: the % may be the effect or the level left.
The target is the same in assay [7]. Nature of the assay: Inhibition of EZH2 in human CD19+ B cells assessed as decrease in cell viability at 4 uM after 5 to 13 days by annexin-V/PI staining based flow cytometry. Particulars: CD19 positive B cell, time 5-13 day, TDE = time-dependent effect. For orientation: In flow cytometry, cells or beads pass a laser one at a time.

Sequence of Histone-lysine N-methyltransferase EZH2 (Homo sapiens) (Q15910 whole entry, looked up): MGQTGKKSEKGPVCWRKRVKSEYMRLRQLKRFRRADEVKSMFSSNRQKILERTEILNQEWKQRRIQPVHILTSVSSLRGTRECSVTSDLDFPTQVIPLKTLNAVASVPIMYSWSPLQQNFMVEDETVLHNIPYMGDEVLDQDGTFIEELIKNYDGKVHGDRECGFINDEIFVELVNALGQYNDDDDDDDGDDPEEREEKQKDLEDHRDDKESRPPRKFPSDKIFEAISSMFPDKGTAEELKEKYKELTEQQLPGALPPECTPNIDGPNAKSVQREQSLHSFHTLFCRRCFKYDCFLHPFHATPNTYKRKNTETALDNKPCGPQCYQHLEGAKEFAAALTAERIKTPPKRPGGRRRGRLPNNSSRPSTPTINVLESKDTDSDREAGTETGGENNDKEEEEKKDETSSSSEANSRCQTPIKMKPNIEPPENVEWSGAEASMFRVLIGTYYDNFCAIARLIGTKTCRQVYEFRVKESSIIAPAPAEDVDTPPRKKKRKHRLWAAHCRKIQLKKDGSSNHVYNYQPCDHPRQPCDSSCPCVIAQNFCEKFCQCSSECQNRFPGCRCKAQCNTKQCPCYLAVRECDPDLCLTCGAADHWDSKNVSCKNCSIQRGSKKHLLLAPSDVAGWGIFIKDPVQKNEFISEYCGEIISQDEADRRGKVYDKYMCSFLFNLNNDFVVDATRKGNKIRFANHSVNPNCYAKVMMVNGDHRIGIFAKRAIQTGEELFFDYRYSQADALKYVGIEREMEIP

For `CCCc1cc(C)[nH]c(=O)c1CNC(=O)c1cc(-c2ccnc(N3CCN(C)CC3)c2)cc2c1cnn2C(C)C`, the Activity stood at 66% in assay [1]; 99.6% in assay [2]; 100% in assay [3]; 99.5% in assay [4]; 65.1% in assay [5]; 65.2% in assay [6]. In addition, the inhibition result in assay [7] was “Tde”.
